Laboratory results taken from US20220017491A1, “COMPOUND INHIBITING YAP-TEAD BINDING, AND PHARMACEUTICAL COMPOSITION FOR PREVENTING OR TREATING CANCER, COMPRISING COMPOUND AS ACTIVE INGREDIENT” (KOREA RESEARCH INSTITUTE OF CHEMICAL TECHNOLOGY, priority 2018, published 2022).
pIC50: −log10 of the molar value.

Experiments:
HT29 cells = test: Proliferation assay for HT29 colorectal cancer cells (CellTiter-Glo cell viability); type: cell-based; details: Homo sapiens, HT-29; HT29 colorectal cancer cell line, 72 hours, ATP detection
Description: HT-29 which is a commercially available colorectal cancer cell line was treated with trypsin-EDTA, incubated, and seeded in a 96 well plate. […] The treated cells were incubated for further 72 hours and cell viability was measured by an ATP detection method (CellTiter-Glo LuminescentCell Viability Assay, Promega).
In order to confirm the anticancer effect of the compounds according to the present invention, a proliferation assay for HT29 cells which are a colorectal cancer cell line was performed by the above method, and IC50 values as a result are listed in the following Table 4: […]

YAP-TEAD = test: Luciferase assay of YAP-TEAD binding inhibition (TEAD luciferase reporter 8XGTIIC in HEK293T cells); type: cell-based; details: 10 μM, 24 hours, luciferase normalized with β-galactosidase
Description: A Luciferase assay which allows an inhibition degree of YAP-TEAD, previously reported in Cancers 2018, 10(5), 140, was used to measure an in vitro binding inhibition rate of YAP-TEAD.
HEK293T cells were purchased from American Type Culture Collection and incubated in DMEM media containing 10% FBS, L-glutamine, and penicillin/streptomycin. The HEK293T cells were seeded in a 24 well plate at a density of 1×10^5, and coated with polyethyleneamine (10 μg/mL). These cells were transfected with 8XGTIIC-luciferase (Addgene reference 34615) which is TEAD luciferase reporter plasmid and control β-galactosidase plasmid CMV-β-Gal using a lipofectamine 2000 reagent (Life Technologies, Inc.) according to the manufacturer's manual. Thereafter, the compound of the present invention was treated at a concentration of 10 μM for 24 hours, the cells were lysed using a Reporter lysis buffer (Promega, France), luciferase activity was read with a Mithras LB940 plate reader, and then normalization was performed with β-galactosidase.

[1] = test system: AOM/DSS-induced colorectal cancer; test: Anticancer activity in AOM/DSS orthotopic syngeneic mouse model; type: in vivo, B6 mouse; details: intraperitoneally for three weeks; intestinal tissue FACS; FIG. 3
Description: In order to measure an anticancer effect in the state of immunity existing in a large intestine, a conventionally known AOM/DSS model was used to measure anticancer activity (J. Vis. Exp. (67), e4100 10.3791/4100, Cell Death & Dis. 2018, 9, 153).
A B6 mouse was adapted to an animal room for one week and then azoxymethane (AOM) was injected intraperitoneally at 10 mg/kg. After one week, the B6 mouse was supplied with a 2.5% dextran sulfate sodium (DSS) solution for one week and alternatively supplied with fresh water for two weeks, which was repeated three time, thereby causing colorectal cancer. After colorectal cancer was caused, the YAP-TEAD inhibition compound 17 of the present invention was injected intraperitoneally at 50 mg/kg, five times a week, for three weeks. After the dosing period was over, an intestine tissue was surgically isolated and the number and size of cancer tissue in the intestine tissue were measured and quantitatively analyzed, and the results are illustrated in FIGS. 1 to 3.
In addition, in order to confirm a ratio of Treg cells which play an important role in immunosuppression in cancer tissues, FACS analysis was performed. […]

SMILES	pIC50 (HT29 cells)	Inhibition(%) (YAP-TEAD)	Treg cells in cancer tissue (FACS, CD4 and Fop3) [1]
COCCCN1C(=O)c2cccc3c(NC(=O)C4CCCCN4S(=O)(=O)c4c(Cl)nc5sccn45)ccc1c23 (centres unmarked) [Compound 78]	4.52	53	–
N#CCCCN1C(=O)c2cccc3c(NC(=O)C4CCCCN4S(=O)(=O)c4cccs4)ccc1c23 (centres unmarked) [Compound 20]	4.49	65	–
CN(CCCN1C(=O)c2cccc3c(NC(=O)C4CCCCN4S(=O)(=O)c4cccs4)ccc1c23)S(C)(=O)=O (centres unmarked) [Compound 117]	4.92	85	–
COCCCN1C(=O)c2cccc3c(NC(=O)C4CCCN(S(=O)(=O)c5cccc6cccnc56)C4)ccc1c23 (centres unmarked) [Compound 75]	4.77	93	–
COCCCN1C(=O)c2cccc3c(NC(=O)C4CCCCN4S(=O)(=O)c4cc5c(s4)CCCC5)ccc1c23 (centres unmarked) [Compound 84]	5.09	83	–
COCCCN1C(=O)c2cccc3c(NC(=O)C4CCCCN4S(=O)(=O)c4c(Cl)sc(Cl)c4Br)ccc1c23 (centres unmarked) [Compound 66]	5.06	59	–
COCCCN1C(=O)c2cccc3c(NC(=O)C4CCCN(S(=O)(=O)c5c(Cl)nc6sccn56)C4)ccc1c23 (centres unmarked) [Compound 68]	4.96	81	–
COCCCN1C(=O)c2cccc3c(NC(=O)C4CCCN(S(=O)(=O)c5cccc6nsnc56)C4)ccc1c23 (centres unmarked) [Compound 69]	4.77	94	–
COCCCN1C(=O)c2cccc3c(NC(=O)C4CCCCN4S(=O)(=O)c4ccc(-c5ccccn5)s4)ccc1c23 (centres unmarked) [Compound 118]	5.54	84	–
COCCCN1C(=O)c2cccc3c(NC(=O)C4CCCN(S(=O)(=O)c5scnc5C)C4)ccc1c23 (centres unmarked) [Compound 64]	4.61	76	–
COc1ccc(CCN2C(=O)c3cccc4c(NC(=O)C5CCCCN5S(=O)(=O)c5cccs5)ccc2c34)cc1 (centres unmarked) [Compound 15]	5.52	81	–
COCCCN1C(=O)c2cccc3c(NC(=O)C4CCCN(S(=O)(=O)c5ccc(Cl)s5)C4)ccc1c23 (centres unmarked) [Compound 29]	4.91	87	–
COCCCN1C(=O)c2cccc3c(NC(=O)C4CCCN(S(=O)(=O)c5ccc(OCCOC)c(C)c5)C4)ccc1c23 (centres unmarked) [Compound 122]	5.19	68	–
COCCCN1C(=O)c2cccc3c(NC(=O)C4CCCN(S(=O)(=O)c5ccc(Br)s5)C4)ccc1c23 (centres unmarked) [Compound 59]	5.12	87	–
O=C(Nc1ccc2c3c(cccc13)C(=O)N2CCc1ccc([N+](=O)[O-])cc1)C1CCCCN1S(=O)(=O)c1cccs1 (centres unmarked) [Compound 16]	5.37	77	–
COC(C)(C)CCN1C(=O)c2cccc3c(NC(=O)C4CCCCN4S(=O)(=O)c4cccs4)ccc1c23 (centres unmarked) [Compound 58]	4.99	65	–
O=C(Nc1ccc2c3c(cccc13)C(=O)N2CCCO)C1CCCCN1S(=O)(=O)c1cccs1 (centres unmarked) [Compound 45]	4.39	–	–
COCCCN1C(=O)c2cccc3c(NC(=O)C4CCCCN4S(=O)(=O)c4sc(NC(C)=O)nc4C)ccc1c23 (centres unmarked) [Compound 43]	4.46	50	–
COCCN1C(=O)c2cccc3c(NC(=O)C4CCCCN4S(=O)(=O)c4cccs4)ccc1c23 (centres unmarked) [Compound 12]	4.51	–	–
N#CCCN1C(=O)c2cccc3c(NC(=O)C4CCCCN4S(=O)(=O)c4cccs4)ccc1c23 (centres unmarked) [Compound 21]	4.47	59	–

The next lines start with results.

pIC50 (HT29 cells)	SMILES	Inhibition(%) (YAP-TEAD)	Treg cells in cancer tissue (FACS, CD4 and Fop3) [1]
4.85	COCCCN1C(=O)c2cccc3c(NC(=O)C4CCCCN4S(=O)(=O)c4cccc5nsnc45)ccc1c23 (centres unmarked) [Compound 79]	71	–
4.90	COCCCN1C(=O)c2cccc3c(NC(=O)C4CCCCN4S(=O)(=O)c4ccc(Br)s4)ccc1c23 (centres unmarked) [Compound 60]	67	–
4.88	COCCCN1C(=O)c2cccc3c(NC(=O)C4CCCN(S(=O)(=O)c5ccc6c(c5)CCO6)C4)ccc1c23 (centres unmarked) [Compound 34]	87	–
4.71	COCCCN1C(=O)c2cccc3c(NC(=O)C4CCCCN4S(=O)(=O)c4ccc5c(c4)OCCO5)ccc1c23 (centres unmarked) [Compound 83]	92	–
4.69	COCCCN1C(=O)c2cccc3c(NC(=O)C4CCCCN4S(=O)(=O)c4ccc5c(c4)CCO5)ccc1c23 (centres unmarked) [Compound 39]	66	–
5.16	COCCCN1C(=O)c2cccc3c(NC(=O)C4CCCCN4S(=O)(=O)c4cccs4)ccc1c23 (centres unmarked) [Compound 17]	78	Treg cell decrease was confirmed
4.66	COCCCN1C(=O)c2cccc3c(NC(=O)C4CCCCN4S(=O)(=O)c4ccc(Cl)s4)ccc1c23 (centres unmarked) [Compound 30]	56	–
4.35	COCCCN1C(=O)c2cccc3c(NC(=O)C4CCCCN4S(=O)(=O)c4ccc(OC)c(OC)c4)ccc1c23 (centres unmarked) [Compound 42]	68	–
5.01	COCCCN1C(=O)c2cccc3c(NC(=O)C4CCCN(S(=O)(=O)c5ccc6c(c5)OCO6)C4)ccc1c23 (centres unmarked) [Compound 56]	63	–
5.25	COCCCN1C(=O)c2cccc3c(NC(=O)C4CCCCN4S(=O)(=O)c4cc(Br)c(Br)s4)ccc1c23 (centres unmarked) [Compound 80]	77	–
